Laboratory results: patent US20220177511A1, “SERIES OF HALOGENATED TETRACYCLIC TRITERPENE DERIVATIVES AND THEIR PREPARATION AND APPLICATION” (SHANGHAI KING-X BIOTECH CO., LTD, priority 2019, published 2022)

Assays:
[1] = Pharmacokinetics of parent HHQ16 after single intragastric administration of compound 2 prodrugs in rats; type: in vivo, rat; conditions: HHQ16 (parent) measured in rats after single intragastric 10 mg/kg of prodrug (dose converted to HHQ16)
Method: 1. The materials and methods for oral absorption test are the same as described in example 44.
The pharmacokinetic parameters of HHQ16 measured after a single intragastric administration of 10 mg/kg of compound 2 prodrug in rats are summarized in Table 2 below.
The half-life was prolonged to varying degrees.

[2] = Solubility test in water and FaSSIF; type: physicochemical; conditions: 37° C., up to 24 hours
[3] = system: chronic heart failure mice; test: Pharmacodynamic comparison of LCZ696 and compound 2 in chronic heart failure mice (echocardiography); type: in vivo
Text: With EF<50%, chronic heart failure mice were selected.
The mice were detected by cardiac ultrasound after 28 days of administration.

[4] = 100 mg/kg, after 28 days of administration
[5] = Positive control 1 (LCZ696, probably 60 mg/kg), Day 0
[6] = Positive control 1 (LCZ696, probably 60 mg/kg), Day 28
[7] = Positive control 2 (LCZ696, probably 100 mg/kg), Day 0
[8] = Positive control 2 (LCZ696, probably 100 mg/kg), Day 28
[9] = chronic heart failure mice (FIG. 9)

3-(((2aR,3R,4S,5aS,5bS,7S,7aR,11aR,12aS)-9,9-difluoro-4-hydroxy-3-((2S,5S)-5-(2-hydroxypropan-2-yl)-2-methyltetrahydrofuran-2-yl)-2a,5a,8,8-tetramethyltetradecahydro-1H,12H-cyclopenta[a]cyclopropa[e]phenanthren-7-yl)oxy)-3-oxopropan-1-aminium Chloride [Compound 2-1]
AUC0-t [1]: 2955 ng·h/mL | Cmax [1]: 455 ng/mL | t1/2 [1]: 3.52 h

CC(C)(O)[C@@H]1CC[C@@](C)([C@H]2[C@@H](O)C[C@@]3(C)[C@@H]4C[C@H](OC(=O)CNC(=O)[C@@H](N)CO)[C@H]5C(C)(C)C(F)(F)CC[C@@]56C[C@@]46CC[C@]23C)O1.Cl [Compound 2-31, (S)-1-((2-(((2aR,3R,4S,5aS,5bS,7S,7aR,11aR,12aS)-9,9-difluoro-4-hydroxy-3-((2S,5S)-5-(2-hydroxypropan-2-yl)-2-methyltetrahydrofuran-2-yl)-2a,5a,8,8-tetramethyltetradecahydro-1H,12H-cyclopenta[a]cyclopropa[e]phenanthren-7-yl)oxy)-2-oxoethyl)amino)-3-hydroxy-1-oxopropan-2-aminium Chloride]
Solubility ([2]; FaSSIF (pH 6.5)): 6250 µg/mL | Solubility ([2]; Water): 1650 µg/mL | AUC0-t [1]: 3888 ng·h/mL | Cmax [1]: 403 ng/mL | t1/2 [1]: 4.5 h

CC(C)C(N)C(=O)OC1CC2C3(C)CC(O)C(C4(C)CCC(C(C)(C)O)O4)C3(C)CCC23CC32CCC(F)(F)C(C)(C)C12.Cl (mixture of isomers) [Compound 2-15, 1-(((2aR,3R,4S,5aS,5bS,7S,7aR,11aR,12aS)-9,9-difluoro-4-hydroxy-3-((2S,5S)-5-(2-hydroxypropan-2-yl)-2-methyltetrahydrofuran-2-yl)-2a,5a,8,8-tetramethyltetradecahydro-1H,12H-cyclopenta[a]cyclopropa[e]phenanthren-7-yl)oxy)-3-methyl-1-oxobutan-2-aminium Chloride]
Solubility ([2]; FaSSIF (pH 6.5)): 3020 µg/mL | Solubility ([2]; Water): 770 µg/mL | AUC0-t [1]: 4500 ng·h/mL | Cmax [1]: 451 ng/mL | t1/2 [1]: 8.2 h

(S)-1-(((2aR,3R,4S,5aS,5bS,7S,7aR,11aR,12aS)-9,9-difluoro-4-hydroxy-3-((2S,5S)-5-(2-hydroxypropan-2-yl)-2-methyltetrahydrofuran-2-yl)-2a,5a,8,8-tetramethyltetradecahydro-1H,12H-cyclopenta[a]cyclopropa[e]phenanthren-7-yl)oxy)-1-oxopropan-2-aminium Chloride [Compound 2-17]
AUC0-t [1]: 5222 ng·h/mL | Cmax [1]: 501 ng/mL | t1/2 [1]: 7.8 h

CN(CC(=O)OC1CC2C3(C)CC(O)C(C4(C)CCC(C(C)(C)O)O4)C3(C)CCC23CC32CCC(F)(F)C(C)(C)C12)C(=O)C(N)Cc1ccccc1.Cl [Compound 2-28, (R)-1-((2-(((2aR,3R,4S,5aS,5bS,7S,7aR,11aR,12aS)-9,9-difluoro-4-hydroxy-3-((2S,5S)-5-(2-hydroxypropan-2-yl)-2-methyltetrahydrofuran-2-yl)-2a,5a,8,8-tetramethyltetradecahydro-1H,12H-cyclopenta[a]cyclopropa[e]phenanthren-7-yl)oxy)-2-oxoethyl)(methyl)amino)-1-oxo-3-phenylpropan-2-aminium Chloride]
Solubility ([2]; FaSSIF (pH 6.5)): 2850 µg/mL | Solubility ([2]; Water): 650 µg/mL | AUC0-t [1]: 4332 ng·h/mL | Cmax [1]: 475 ng/mL | t1/2 [1]: 6.2 h

CC(C)(O)[C@@H]1CC[C@@](C)([C@H]2[C@@H](O)C[C@@]3(C)[C@@H]4C[C@H](OC(=O)CNC(=O)CN)[C@H]5C(C)(C)C(F)(F)CC[C@@]56C[C@@]46CC[C@]23C)O1.Cl [Compound 2-27, 2-((2-(((2aR,3R,4S,5aS,5bS,7S,7aR,11aR,12aS)-9,9-difluoro-4-hydroxy-3-((2S,5S)-5-(2-hydroxypropan-2-yl)-2-methyltetrahydrofuran-2-yl)-2a,5a,8,8-tetramethyltetradecahydro-1H,12H-cyclopenta[a]cyclopropa[e]phenanthren-7-yl)oxy)-2-oxoethyl)amino)-2-oxoethan-1-aminium Chloride]
Solubility ([2]; FaSSIF (pH 6.5)): 4300 µg/mL | Solubility ([2]; Water): 1300 µg/mL | AUC0-t [1]: 3005 ng·h/mL | Cmax [1]: 358 ng/mL | t1/2 [1]: 7.5 h

CC(N)C(=O)N(C)CC(=O)OC1CC2C3(C)CC(O)C(C4(C)CCC(C(C)(C)O)O4)C3(C)CCC23CC32CCC(F)(F)C(C)(C)C12.Cl [Compound 2-29, (S)-1-((2-(((2aR,3R,4S,5aS,5bS,7S,7aR,11aR,12aS)-9,9-difluoro-4-hydroxy-3-((2S,5S)-5-(2-hydroxypropan-2-yl)-2-methyltetrahydrofuran-2-yl)-2a,5a,8,8-tetramethyltetradecahydro-1H,12H-cyclopenta[a]cyclopropa[e]phenanthren-7-yl)oxy)-2-oxoethyl)(methyl)amino)-1-oxopropan-2-aminium Chloride]
Solubility ([2]; FaSSIF (pH 6.5)): 3130 µg/mL | Solubility ([2]; Water): 950 µg/mL | AUC0-t [1]: 5221 ng·h/mL | Cmax [1]: 605 ng/mL | t1/2 [1]: 5.6 h

CC(C)(O)[C@@H]1CC[C@@](C)([C@H]2[C@@H](O)C[C@@]3(C)[C@@H]4C[C@H](OC(=O)[C@@H](N)CO)[C@H]5C(C)(C)C(F)(F)CC[C@@]56C[C@@]46CC[C@]23C)O1.Cl [Compound 2-19, (S)-1-(((2aR,3R,4S,5aS,5bS,7S,7aR,11aR,12aS)-9,9-difluoro-4-hydroxy-3-((2S,5S)-5-(2-hydroxypropan-2-yl)-2-methyltetrahydrofuran-2-yl)-2a,5a,8,8-tetramethyltetradecahydro-1H,12H-cyclopenta[a]cyclopropa[e]phenanthren-7-yl)oxy)-3-hydroxy-1-oxopropan-2-aminium chloride]
Solubility ([2]; FaSSIF (pH 6.5)): 3980 µg/mL | Solubility ([2]; Water): 1240 µg/mL | AUC0-t [1]: 4400 ng·h/mL | Cmax [1]: 602 ng/mL | t1/2 [1]: 3.5 h

2-(((2aR,3R,4S,5aS,5bS,7S,7aR,11aR,12aS)-9,9-difluoro-4-hydroxy-3-((2S,5S)-5-(2-hydroxypropan-2-yl)-2-methyltetrahydrofuran-2-yl)-2a,5a,8,8-tetramethyltetradecahydro-1H,12H-cyclopenta[a]cyclopropa[e]phenanthren-7-yl)oxy)-N-methyl-2-oxoethan-1-aminium Chloride [Compound 2-6]
AUC0-t [1]: 3525 ng·h/mL | Cmax [1]: 433 ng/mL | t1/2 [1]: 4.2 h

CC(O)C(N)C(=O)OC1CC2C3(C)CC(O)C(C4(C)CCC(C(C)(C)O)O4)C3(C)CCC23CC32CCC(F)(F)C(C)(C)C12.Cl [Compound 2-20, (2S,3S)-1-(((2aR,3R,4S,5aS,5bS,7S,7aR,11aR,12aS)-9,9-difluoro-4-hydroxy-3-((2S,5S)-5-(2-hydroxypropan-2-yl)-2-methyltetrahydrofuran-2-yl)-2a,5a,8,8-tetramethyltetradecahydro-1H,12H-cyclopenta[a]cyclopropa[e]phenanthren-7-yl)oxy)-3-hydroxy-1-oxobutan-2-aminium Chloride]
Solubility ([2]; FaSSIF (pH 6.5)): 2800 µg/mL | Solubility ([2]; Water): 1200 µg/mL | AUC0-t [1]: 4005 ng·h/mL | Cmax [1]: 582 ng/mL | t1/2 [1]: 3.6 h

sacubitril valsartan sodium [LCZ696]
left ventricular ejection fraction EF % increased by ([3]; 60 mg/kg, after 28 days of administration): 33.14% | FS % [3, 4]: significantly increased | left ventricular ejection fraction EF % increased by [3, 4]: 45.36% | CO [3, 5]: 30.83 ± 2.77 mL/min | EF [3, 5]: 23.49 ± 3.96% | FS [3, 5]: 9.31 ± 1.8% | HR [3, 5]: 575.58 ± 11.44 times/min | CO [3, 6]: 30.17 ± 1.85 mL/min | EF [3, 6]: 31.27 ± 5.36% | FS [3, 6]: 12.93 ± 2.66% | HR [3, 6]: 531.4 ± 19.6 times/min | CO [3, 7]: 35.4 ± 3.19 mL/min | EF [3, 7]: 22.89 ± 2.06% | FS [3, 7]: 9.24 ± 0.86 % | HR [3, 7]: 553.5 ± 10.76 times/min | CO [3, 8]: 39.02 ± 4.26 mL/min | EF [3, 8]: 34.72 ± 5.06% | FS [3, 8]: 14.76 ± 2.86% | HR [3, 8]: 550.17 ± 12.72 times/min | Cardiac output per minute (CO), day 28 vs day 0 (words) [3, 9]: not statistically significant | Heart rate (HR), day 28 vs day 0 [3, 9]: no significant change | EF, day 28 vs day 0 (words) ([3]; chronic heart failure mice, p<0.0005 (FIG. 8)): significantly increased

CC(C)(O)C1CCC(C)(C2C(O)CC3(C)C4CC(OP(=O)([O-])O)C5C(C)(C)C(F)(F)CCC56CC46CCC23C)O1.[Na+] [Compound 3-1, Monosodium Mono((2aR,3R,4S,5aS,5bS,7S,7aR,11aR,12aS)-9,9-difluoro-4-hydroxy-3-((2S,5S)-5-(2-hydroxypropan-2-yl)-2-methyltetrahydrofuran-2-yl)-2a,5a,8,8-tetramethyltetradecahydro-1H,12H-cyclopenta[a]cyclopropa[e]phenanthren-7-yl phosphate)]
Solubility ([2]; FaSSIF (pH 6.5)): 15800 µg/mL | Solubility ([2]; Water): 11500 µg/mL

CC(C)(O)[C@@H]1CC[C@@](C)([C@H]2[C@@H](O)C[C@@]3(C)[C@@H]4C[C@H](OC(=O)[C@@H](N)CCCCN)[C@H]5C(C)(C)C(F)(F)CC[C@@]56C[C@@]46CC[C@]23C)O1.Cl.Cl [Compound 2-26, (S)-6-(((2aR,3R,4S,5aS,5bS,7S,7aR,11aR,12aS)-9,9-difluoro-4-hydroxy-3-((2S,5S)-5-(2-hydroxypropan-2-yl)-2-methyltetrahydrofuran-2-yl)-2a,5a,8,8-tetramethyltetradecahydro-1H,12H-cyclopenta[a]cyclopropa[e]phenanthren-7-yl)oxy)-6-oxohexane-1,5-diaminium Chloride]
Solubility ([2]; FaSSIF (pH 6.5)): 6600 µg/mL | Solubility ([2]; Water): 2100 µg/mL
